The text below walks through data of patent US20260027104A1, “NOVEL NAPHTHYL AND ISOQUINOLINE SULFONAMIDE DERIVATIVES” (Hoffmann-La Roche Inc., priority 2022, published 2026).

Each structure is given as a SMILES string.

human GPR17 short isoform, sequence (Q13304 29-367): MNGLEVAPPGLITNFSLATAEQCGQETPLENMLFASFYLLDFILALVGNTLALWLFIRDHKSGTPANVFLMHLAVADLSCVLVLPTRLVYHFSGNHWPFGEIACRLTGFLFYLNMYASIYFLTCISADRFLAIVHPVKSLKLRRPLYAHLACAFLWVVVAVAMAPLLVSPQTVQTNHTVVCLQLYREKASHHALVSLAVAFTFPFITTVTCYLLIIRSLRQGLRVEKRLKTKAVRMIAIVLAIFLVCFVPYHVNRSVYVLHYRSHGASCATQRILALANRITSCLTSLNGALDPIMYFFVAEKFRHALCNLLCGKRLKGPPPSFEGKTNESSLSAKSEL

This experiment addresses human GPR17 short isoform (Homo sapiens, UniProt Q13304). Put plainly: hGPR17 cAMP assay (GPR17 cAMP Assay Protocol, antagonist mode). Format: cell-based. As to conditions: CHO-K1 cells stably expressing untagged human GPR17 short isoform; EC80 of agonist MDL29,951; forskolin 15 μM; 30 min, room temperature; TR-FRET cAMP readout. As for the experimental part:
GPR17 cAMP Assay Protocol:
CHO-K1 cells stably expressing vector containing untagged human GPR17 short isoform (Roche) were cultured at 37° C./5% CO2 in DMEM (Dulbecco's Modified Eagle Medium):F-12 (1:1) supplemented with 10% foetal bovine serum and 400 μg/ml Geneticin.
Changes in intracellular cyclic adenosine monophosphate (cAMP) levels were quantified using the Nano-TRF Detection Assay kit (Roche Diagnostics, Cat. No. 05214386001). This assay allows for direct cAMP quantification in a homogeneous solution. cAMP is detected based on time-resolved fluorescence energy transfer (TR-FRET) and competitive binding of ruthenylated cAMP and endogenous cAMP to an anti-cAMP monoclonal antibody labeled with AlexaFluor-700. The Ruthenium complex serves as the FRET donor and transfers energy to AlexaFluor-700. The FRET signal is inversely proportional to the cAMP concentration.
CHO-GPR17S cells were detached with Accutase and resuspended in assay buffer consisting of Hank's Balanced Salt Solution (HBSS), 10 mM HEPES (4-(2-hydroxyethyl) piperazine-1-ethanesulfonic acid solution) and 0.1% bovine serum albumin (pH 7.4). The cells were seeded in black 384-well plates (Corning) at a density of 10′000 cells/20 μl assay buffer until the addition of compounds.
Test antagonist compounds were serially diluted in dimethyl sulfoxide (DMSO) and spotted in 384-well plates. The compounds were then diluted in BSS buffer supplemented with an EC80 concentration of MDL29,951 (3-(2-Carboxy-4,6-dichloroindol-3-yl)propionic acid) (GPR17 agonist) plus 3-Isobutyl-1-methylxanthine (IBMX) (0.5 mM final concentration) and added to the cells at room temperature. Forskolin (15 μM final concentration) was added 5 minutes after the test compounds and the cells were incubated at room temperature for 30 minutes. The assay was stopped by adding cAMP detection mix (containing detergents for cell lysis) for 90 minutes at room temperature.
Cellular cAMP was measured using a Paradigm reader (Molecular Devices). The raw data was used to calculate the FRET signal based on the assay's P-factor as per cAMP kit instructions. The data was normalized to the maximal activity of a reference antagonist and dose response curves were fitted to the percent activity of the test compounds using a sigmoidal dose response model (Genedata Screener).
Results in the hGPR17 cAMP assay are provided for compounds of formula I in Table 1
Background: Cyclic AMP is a second messenger, typically raised through Gs and lowered through Gi signalling.
In turn, `COc1nc(OCC(F)F)c(F)cc1NS(=O)(=O)c1cncc2nc(Cl)ccc12` [Example 50, 2-chloro-N-[6-(2,2-difluoroethoxy)-5-fluoro-2-methoxy-3-pyridyl]-1,7-naphthyridine-5-sulfonamide] showed a concentration for half-maximal inhibition (IC50) of 38 nM.

`COc1nc(OC(F)F)c(F)cc1NS(=O)(=O)c1c[nH]c(=O)c2cc(Cl)ccc12` [Example 23, 7-chloro-N-[6-(difluoromethoxy)-5-fluoro-2-methoxy-3-pyridyl]-1-keto-2H-isoquinoline-4-sulfonamide] registered an IC50 of 19 nM.

`COc1nc(C2CC2)c(F)cc1NS(=O)(=O)c1cccc2nc(Cl)ccc12` [Example 4, 2-chloro-N-(6-cyclopropyl-5-fluoro-2-methoxy-3-pyridyl)quinoline-5-sulfonamide] displayed a concentration for half-maximal inhibition (IC50) of 45 nM.

In the case of `COc1nc(NS(=O)(=O)c2c[nH]c(=O)c3cc(Cl)ccc23)c(F)cc1OCC(F)F` [Example 25, 7-chloro-N-[5-(2,2-difluoroethoxy)-3-fluoro-6-methoxy-2-pyridyl]-1-oxo-2H-isoquinoline-4-sulfonamide], the half-maximal inhibitory concentration (IC50) was found to be 50 nM.

`CNc1ncc(S(=O)(=O)Nc2cc(F)c(OCC(F)F)nc2OC)c2ccc(Cl)cc12` [Example 43, 7-chloro-N-[6-(2,2-difluoroethoxy)-5-fluoro-2-methoxy-3-pyridyl]-1-(methylamino)isoquinoline-4-sulfonamide] showed an IC50 of 35 nM.

In turn, `COc1nc(OCC(F)F)c(F)cc1NS(=O)(=O)c1cccc2nc(N(C)C)ccc12` [Example 31, N-[6-(2,2-difluoroethoxy)-5-fluoro-2-methoxy-3-pyridyl]-2-(dimethylamino)quinoline-5-sulfonamide] gave an IC50 of 65 nM.

Take `COc1nc(OCC(F)F)c(F)cc1NS(=O)(=O)c1cn(C)c(=O)c2cc(Cl)ccc12` [Example 36, 7-chloro-N-[6-(2,2-difluoroethoxy)-5-fluoro-2-methoxy-3-pyridyl]-1-keto-2-methyl-isoquinoline-4-sulfonamide]: the half-inhibitory concentration (IC50) is 371 nM.

On to `COc1nc(OCC(F)F)c(F)cc1NS(=O)(=O)c1cc(=O)[nH]c2cc(Cl)ccc12` [Example 30, 7-chloro-N-[6-(2,2-difluoroethoxy)-5-fluoro-2-methoxy-3-pyridyl]-2-keto-1H-quinoline-4-sulfonamide], for which the IC50 was determined as 35 nM.

`COc1nc(OCC(F)F)c(F)cc1NS(=O)(=O)c1c[nH]c(=O)c2nc(Cl)ccc12` [Example 29, 2-chloro-N-[6-(2,2-difluoroethoxy)-5-fluoro-2-methoxy-3-pyridyl]-8-keto-7H-1,7-naphthyridine-5-sulfonamide] displayed a half-inhibitory concentration (IC50) of 30 nM.

`COc1nc(OCC(F)F)c(F)cc1NS(=O)(=O)c1cccc2ccccc12` [Example 2, N-[6-(2,2-difluoroethoxy)-5-fluoro-2-methoxy-3-pyridyl]naphthalene-1-sulfonamide] had a concentration for half-maximal inhibition (IC50) of 85 nM.

As to `N#CCc1cc(F)c(NS(=O)(=O)c2cccc3nc(Cl)ccc23)cc1F` [Example 3, 2-chloro-N-[4-(cyanomethyl)-2,5-difluoro-phenyl]quinoline-5-sulfonamide], the half-inhibitory concentration (IC50) amounted to 217 nM.

The molecule `CN(C)c1ccc2c(S(=O)(=O)Nc3cc(F)c(CC#N)cc3F)cccc2n1` [Example 32, N-[4-(cyanomethyl)-2,5-difluoro-phenyl]-2-(dimethylamino)quinoline-5-sulfonamide] showed an IC50 of 238 nM.

The molecule `COc1nc(OCC(F)F)c(F)cc1NS(=O)(=O)c1c[nH]c(=O)c2cc(Cl)ccc12` [Example 26] yielded an IC50 of 5 nM.

Take `COc1ncc(S(=O)(=O)Nc2cc(F)c(CC#N)cc2F)c2ccc(Cl)cc12` [Example 49, 7-chloro-N-[4-(cyanomethyl)-2,5-difluoro-phenyl]-1-methoxy-isoquinoline-4-sulfonamide]: the half-maximal inhibitory concentration (IC50) came out at 905 nM.

Regarding `COc1nc(OCC(F)F)c(F)cc1NS(=O)(=O)c1cc(=O)n(C)c2cc(Cl)ccc12` [Example 37, 7-chloro-N-[6-(2,2-difluoroethoxy)-5-fluoro-2-methoxy-3-pyridyl]-2-keto-1-methyl-quinoline-4-sulfonamide], the concentration for half-maximal inhibition (IC50) was 246 nM.

As to `COc1nc(OC(F)F)c(F)cc1NS(=O)(=O)c1cncc2cc(Cl)ccc12` [Example 13, 7-chloro-N-[6-(difluoromethoxy)-5-fluoro-2-methoxy-3-pyridyl]isoquinoline-4-sulfonamide], the IC50 amounted to 92 nM.

In turn, `COc1nc(NS(=O)(=O)c2c[nH]c(=O)c3cc(Cl)ccc23)ncc1OCCF` [Example 22, 7-chloro-N-[5-(2-fluoroethoxy)-4-methoxy-pyrimidin-2-yl]-1-keto-2H-isoquinoline-4-sulfonamide] gave an IC50 of 331 nM.

Turning to `COc1nc(NS(=O)(=O)c2cccc3nc(Cl)ccc23)c(F)cc1OCC(F)F` [Example 9, 2-chloro-N-[5-(2,2-difluoroethoxy)-3-fluoro-6-methoxy-2-pyridyl]quinoline-5-sulfonamide], the half-inhibitory concentration (IC50) is 495 nM.

With `N#CCc1cc(F)c(NS(=O)(=O)c2cccc3c(Cl)cccc23)cc1F` [Example 17, 5-chloro-N-[4-(cyanomethyl)-2,5-difluoro-phenyl]naphthalene-1-sulfonamide], the IC50 was found to be 88 nM.

`CN(C)c1ncc(S(=O)(=O)Nc2cc(F)c(CC#N)cc2F)c2ccc(Cl)cc12` [Example 42, 7-chloro-N-[4-(cyanomethyl)-2,5-difluoro-phenyl]-1-(dimethylamino)isoquinoline-4-sulfonamide] came in with a concentration for half-maximal inhibition (IC50) of 423 nM.

The molecule `COc1nc(OCC(F)F)c(F)cc1NS(=O)(=O)c1cccc2c(N(C)C)cccc12` [Example 40, N-[6-(2,2-difluoroethoxy)-5-fluoro-2-methoxy-3-pyridyl]-5-(dimethylamino)naphthalene-1-sulfonamide] came in with an IC50 of 13 nM.

Regarding `N#CCc1cc(F)c(NS(=O)(=O)c2c[nH]c(=O)c3ccccc23)cc1F` [Example 52, N-(4-(cyanomethyl)-2,5-difluorophenyl)-1-oxo-1,2-dihydroisoquinoline-4-sulfonamide], the half-inhibitory concentration (IC50) is 594 nM.

As a reminder, the IC50 is the concentration that inhibits the measured activity by half. A low value points to greater potency in that assay.
